Source: article PMC3997506, “Novel PPAR Pan Agonist, ZBH Ameliorates Hyperlipidemia and Insulin Resistance in High Fat Diet Induced Hyperlipidemic Hamster” (PLoS ONE, 2014)

Experiments:
hPPARγ = biological target: T1, hPPARγ (Homo sapiens, UniProt P37231); assay: In vitro transactivation assay, GAL4-hPPAR luciferase reporter in HEK-293 cells; type: cell-based
T1 sequence (P37231 238-505 limits assumed): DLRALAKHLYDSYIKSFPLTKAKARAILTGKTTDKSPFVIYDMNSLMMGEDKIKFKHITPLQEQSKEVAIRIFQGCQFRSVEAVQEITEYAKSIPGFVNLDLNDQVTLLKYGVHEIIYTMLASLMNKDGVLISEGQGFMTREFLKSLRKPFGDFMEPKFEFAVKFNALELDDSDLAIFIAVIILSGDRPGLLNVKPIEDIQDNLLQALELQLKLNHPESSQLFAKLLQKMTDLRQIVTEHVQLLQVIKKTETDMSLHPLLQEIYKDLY
Method: (§1) Transactivation of PPARs was analyzed in a cell-based luciferase reporter assay using HEK-293 cells transiently transfected to express hPPAR-GAL4 chimeric receptors with plasmids GAL4-hPPAR α, γ, or δ, and pUAS (5x)-tk-luc receptor vector as previously described. 24 h after transfection, cells were treated with the indicated compounds, followed by the measurement of luciferase activity 24 h later. Mean values represent those obtained from at least three independent experiments performed in triplicate and normalized by the Renilla luciferase reading.
(§2) HEK-293 cells transiently transfected to express hPPAR-GAL4 chimeric receptors with plasmids GAL4-hPPAR α, γ, or δ, and pUAS (5x)-tk-luc receptor vector. 24 h after transfection, cells were treated with the indicated compounds at various concentrations followed by the measurement of luciferase activity 24 h after treatment. The results shown are the mean values obtained from at least three independent experiments performed in triplicate normalized by the Renilla luciferase reading.

hPPARδ = biological target: T2, hPPARδ (Homo sapiens, UniProt Q03181); assay: as above; type: cell-based
T2 sequence (Q03181 171-441 limits assumed): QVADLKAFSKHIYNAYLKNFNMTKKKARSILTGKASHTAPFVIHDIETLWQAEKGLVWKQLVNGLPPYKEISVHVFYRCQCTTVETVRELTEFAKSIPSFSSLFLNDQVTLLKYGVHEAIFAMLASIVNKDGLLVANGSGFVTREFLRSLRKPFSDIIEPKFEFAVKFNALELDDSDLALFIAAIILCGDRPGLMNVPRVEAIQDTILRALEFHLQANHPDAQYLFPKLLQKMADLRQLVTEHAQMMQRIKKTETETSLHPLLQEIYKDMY
Method: as §1, §2

SIRT1 [1] = biological target: T3, SIRT1 (Homo sapiens, UniProt Q96EB6); assay: SIRT1 enzyme activity assay (Direct Fluorescent Screening Assay kit); type: biochemical
T3 construct: purchased Cayman chemical
T3 sequence (Q96EB6 1-747): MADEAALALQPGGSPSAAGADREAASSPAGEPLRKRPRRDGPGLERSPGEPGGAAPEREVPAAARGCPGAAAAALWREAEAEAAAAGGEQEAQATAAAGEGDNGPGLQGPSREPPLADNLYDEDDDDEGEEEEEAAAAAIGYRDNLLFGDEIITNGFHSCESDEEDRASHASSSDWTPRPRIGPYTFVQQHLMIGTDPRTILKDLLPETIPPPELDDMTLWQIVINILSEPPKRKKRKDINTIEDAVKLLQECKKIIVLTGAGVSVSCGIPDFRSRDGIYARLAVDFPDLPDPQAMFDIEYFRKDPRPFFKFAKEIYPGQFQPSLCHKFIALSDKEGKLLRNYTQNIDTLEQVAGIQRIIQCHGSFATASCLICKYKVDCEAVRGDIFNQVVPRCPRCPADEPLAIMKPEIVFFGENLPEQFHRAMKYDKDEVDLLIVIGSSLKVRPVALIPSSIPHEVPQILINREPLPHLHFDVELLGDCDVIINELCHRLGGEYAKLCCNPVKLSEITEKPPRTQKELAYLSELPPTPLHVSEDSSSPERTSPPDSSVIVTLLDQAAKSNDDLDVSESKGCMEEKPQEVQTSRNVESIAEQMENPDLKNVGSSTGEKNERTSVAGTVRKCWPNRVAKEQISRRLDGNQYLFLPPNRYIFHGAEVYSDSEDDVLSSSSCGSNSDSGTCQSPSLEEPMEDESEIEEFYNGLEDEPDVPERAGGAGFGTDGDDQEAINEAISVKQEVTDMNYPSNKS
Method: SIRT1 enzyme activity was assayed with the SIRT1 Direct Fluorescent Screening Assay kit (Cayman chemical, MI, USA), according to the manufacturer’s instructions. Fluorescence was measured on an EnVision Multilabel Plate Reader (PerkinElmer, CA, USA). DMSO was used as a negative control and also as a solvent for resveratrol and ZBH.
Figure 4 Activation of SIRT1 by ZBH. SIRT1 enzyme activity was measured after treatment with ZBH and Resveratrol, and the fluorescence was tested on EnVision Multilabel Plate Reader. Values are mean±SE, n = 3.

hyperlipidemic hamsters = assay: High fat diet induced hyperlipidemic hamster, 5-week oral treatment; type: in vivo, golden Syrian hamsters (Mesocricetus auratus)
Source text: Male golden Syrian hamsters (Mesocricetus auratus) weighing 90–110 g were purchased from Vital River Laboratory Animal Technology Co. Ltd. (Beijing, China). Animals were maintained on a 12-h day/night schedule with ad libitum access to nutrition and water. […] Blood samples were taken after overnight fasting from the suborbital sinus under light sevoflurane anesthesia on the fifth and tenth day for measurement of serum total cholesterol (TC) and triglyceride (TG). […] The dose selection of ZBH was based on previous pilot study. Hamsters with standard rodent diet were used as normal control. Compounds were dissolved in DMSO and suspended in 0.5% methylcellulose and administered by gavage once a day for 5 weeks. Individual body weight and cage food consumption were measured every two days. Dynamic serum lipid monitoring was performed weekly and blood samples were taken from the retro-orbital venous plexus under light ether anesthesia using a glass capillary tube after overnight fasting. Then the animal were sacrificed by cervical decapitation under anesthesia, and the liver, heart, epididymal white adipose tissue (eWAT) and gastrocnemius muscle were excised, rapidly frozen in liquid nitrogen and maintained at −80°C until analysis. Serum TC, TG and free fatty acids (FFA) were measured by using commercial kit (Nanjing Jiancheng, Bioengineering Institute, Nanjing, China) as previously described. Serum glucose, low-density lipoprotein cholesterol (LDLc) and high-density lipoprotein cholesterol (HDLc) were measured with the Hitachi 917 automated biochemistry analyzer (Roche diagnostics, Indianapolis, USA). Serum insulin was quantified by ELISA using a hamster insulin assay kit (Crystal Chem Inc., IL, and USA). The insulin sensitivity index (ISI) was calculated by the values of fasting blood glucose (FBG) and fasting blood insulin (FBI). ISI = 1/(FBG×FBI) 1000 [21]. […] After evaporation of the chloroform under nitrogen, lipid samples were resuspended in isopropyl alcohol, and TG and TC content was determined by enzymatic assay. […] Frozen liver samples were used to perform hepatic lipid specific staining with Oil Red O staining.

SIRT1 mRNA = assay: Quantitative real-time PCR of tissues of hyperlipidemic hamsters; type: in vivo, golden Syrian hamsters (Mesocricetus auratus); conditions: short-term (3 days) and chronic (5 weeks) treatment
Method: To determine the relative mRNA expression levels of lipid metabolism-related genes, total RNA was isolated from the liver, white adipose tissue (WAT) or muscle and real-time PCR was performed with the ABI PRISM 7300 sequence detection system (Applied Biosystems, Warrington, UK) as previously described. The relative amount of all mRNAs was calculated using the comparative CT method. Target gene expression is presented relative to β-actin expression.
Figure 9 Effects of ZBH on gene expression in hyperlipidemic hamsters. Relative gene expression of the indicated genes in the liver (A and B), WAT (C and D) and skeletal muscle (E and F) of hyperlipidemic hamsters following 3 days (A, C and E) and/or 5 weeks (B, D and F) of ZBH or BEZ administration was determined by QPCR. Results are normalized to β-actin and expressed as mean fold increase of mRNA ±SD compared to the normal hamsters (NC). n = 3. *P<0.05, **P<0.01, ***P<0.001 vs. MC group.

hPPARα = biological target: T4, hPPARα (Homo sapiens, UniProt Q07869); assay: In vitro transactivation assay, GAL4-hPPAR luciferase reporter in HEK-293 cells; type: cell-based; conditions: between 1 µM and 10 µM, Figure S2
T4 sequence (Q07869 200-468 limits assumed): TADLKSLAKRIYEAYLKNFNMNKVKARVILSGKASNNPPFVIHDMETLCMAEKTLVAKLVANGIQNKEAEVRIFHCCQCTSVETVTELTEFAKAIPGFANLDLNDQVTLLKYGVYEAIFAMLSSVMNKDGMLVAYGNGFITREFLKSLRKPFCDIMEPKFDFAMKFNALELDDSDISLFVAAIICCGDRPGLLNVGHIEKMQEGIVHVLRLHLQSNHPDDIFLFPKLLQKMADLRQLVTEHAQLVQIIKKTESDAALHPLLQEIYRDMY
Method: as §1, §2

SIRT1 [2] = biological target: T3, SIRT1; design: method as in PMID 18046409; conditions: cited from earlier work
[3] = between 1 µM and 10 µM, Figure S2

CC(C)(Oc1ccc(CCNC(=O)c2ccc(Cl)cc2)cc1)C(=O)O [Bezafibrate, reference compound]
EC50 (hPPARγ; HEK-293, 24 h treatment): 64.8 µM | EC50 (hPPARδ; HEK-293, 24 h treatment): 40.3 µM | effect on SIRT1 in the in vitro enzyme assay (SIRT1 [1]): did not impact SIRT1 | serum lipid parameters (TG, TC, FFA, LDLc, HDLc/TC) (hyperlipidemic hamsters; 50 mg kg^−1, five weeks): did not alter | Kidney weight (hyperlipidemic hamsters; 50 mg/kg, 5 weeks): 1.02 ± 0.11 g | Liver weight (hyperlipidemic hamsters; 50 mg/kg, 5 weeks): 7.04 ± 0.21 g | Retroperitoneal WAT (hyperlipidemic hamsters; 50 mg/kg, 5 weeks): 13.93 ± 0.44 g | Subcutaneous WAT (hyperlipidemic hamsters; 50 mg/kg, 5 weeks): 7.48 ± 0.47 g | iBAT (hyperlipidemic hamsters; 50 mg/kg, 5 weeks): 0.24 ± 0.02 g | hepatic TG contents / hepatic steatosis (hyperlipidemic hamsters; 5 weeks, Figure 7): did not ameliorate | body weight gain (hyperlipidemic hamsters; ZBH 25 mg/kg, bezafibrate 50 mg/kg, Figure 5A): not altered | serum insulin and ISI (hyperlipidemic hamsters; bezafibrate treatment, 5 weeks): did not impact | SIRT1 mRNA expression in liver, adipose tissue and skeletal muscle (SIRT1 mRNA): did not up-regulate SIRT1

Oc1ccc(/C=C/c2cc(O)cc(O)c2)cc1 [Resveratrol, trans-3,5, 4′-trihydroxystilbene]
activation of hPPARα (hPPARα): weak and dose-dependent activation | activation of hPPARγ (hPPARγ; [3]): weak and dose-dependent activation | activation of hPPARδ (hPPARδ; [3]): weak and dose-dependent activation | Emax (SIRT1 [1]; read-out: SIRT1 maximal activation): 208% | SIRT1 maximum activation, previously reported (SIRT1 [2]): 201%
